Experimental data as given in ChEMBL document CHEMBL3885861, “Open TG-GATES”.

Organism: Rattus norvegicus
Experiment: Open TG-GATES - Regimen: Single
Type: toxicity, organism-based, Sprague-Dawley
Set-up: regimen Single, gender Male, age 6 weeks
Details: in vivo, po, 100 mg/kg, route gavage, dose level Middle; for APTT / Bas / Eos / Fbg / Hb / Ht / Lym / MCH / MCHC / MCV / Mono / Neu / PT / Plat / RBC / Ret / WBC: tissue Blood; for KIDNEY_L / KIDNEY_R / KIDNEY_TOTAL: tissue Kidney; for LIVER: tissue Liver; for A/G / ALP / ALT / AST / BUN / CRE / Ca / Cl / DBIL / GLC / IP / K / LDH / Na / PL / RALB / TBIL / TC / TG / TP / gamma-GTP: tissue Plasma

Compound: CC[C@H]1[C@@H]2C[C@H]3[C@@H]4N(C)c5ccccc5[C@]45C[C@@H]([C@@H]2[C@H]5O)N3[C@@H]1O [AJMALINE]
- TERMINAL_BW (3 h): 195.2 g
- APTT (3 h): 16.3 s
- Bas (3 h): 0%
- Eos (3 h): 0.6%
- Fbg (3 h): 201.2 mg/dL
- Hb (3 h): 13.1 g/dL
- Ht (3 h): 40.1%
- Lym (3 h): 80.2%
- MCH (3 h): 21.8 pg
- MCHC (3 h): 32.7%
- MCV (3 h): 66.7 fL
- Mono (3 h): 6.8%
- Neu (3 h): 12.4%
- PT (3 h): 11.8 s
- Plat (3 h): 115.9 x10_4/uL
- RBC (3 h): 602.8 x10_4/ul
- Ret (3 h): 12.1%
- WBC (3 h): 109.1 x10_2/uL
- KIDNEY_L (3 h): 0.9 g
- KIDNEY_R (3 h): 0.9 g
- KIDNEY_TOTAL (3 h): 1.8 g
- LIVER (3 h): 9.6 g
- A/G (3 h): 2.4
- ALP (3 h): 824.8 IU/L
- ALT (3 h): 33.4 IU/L
- AST (3 h): 64.6 IU/L
- BUN (3 h): 11.6 mg/dL
- CRE (3 h): 0.4 mg/dL
- Ca (3 h): 11.1 mg/dL
- Cl (3 h): 103 meq/L
- DBIL (3 h): 0.052 mg/dL
- GLC (3 h): 198.4 mg/dL
- IP (3 h): 9.1 mg/dL
- K (3 h): 4.5 meq/L
- LDH (3 h): 128 IU/L
- Na (3 h): 138.2 meq/L
- PL (3 h): 140.4 mg/dL
- RALB (3 h): 3.6 g/dL
- TBIL (3 h): 0.4 mg/dL
- TC (3 h): 75 mg/dL
- TG (3 h): 65.6 mg/dL
- TP (3 h): 5.2 g/dL
- gamma-GTP (3 h): 1.6 IU/L
- TERMINAL_BW (6 h): 187.8 g
- APTT (6 h): 17 s
- Bas (6 h): 0%
- Eos (6 h): 0.6%
- Fbg (6 h): 193.4 mg/dL
- Hb (6 h): 12.9 g/dL
- Ht (6 h): 39%
- Lym (6 h): 84.2%
- MCH (6 h): 21.8 pg
- MCHC (6 h): 33.1%
- MCV (6 h): 66 fL
- Mono (6 h): 5.8%
- Neu (6 h): 9%
- PT (6 h): 12.1 s
- Plat (6 h): 109.9 x10_4/uL
- RBC (6 h): 591.4 x10_4/ul
- Ret (6 h): 11.2%
- WBC (6 h): 76.5 x10_2/uL
- KIDNEY_L (6 h): 0.9 g
- KIDNEY_R (6 h): 0.9 g
- KIDNEY_TOTAL (6 h): 1.8 g
- LIVER (6 h): 8.5 g
- A/G (6 h): 2.2
- ALP (6 h): 849 IU/L
- ALT (6 h): 31.6 IU/L
- AST (6 h): 67.8 IU/L
- BUN (6 h): 9 mg/dL
- CRE (6 h): 0.5 mg/dL
- Ca (6 h): 11 mg/dL
- Cl (6 h): 102.6 meq/L
- DBIL (6 h): 0.044 mg/dL
- GLC (6 h): 191 mg/dL
- IP (6 h): 9.9 mg/dL
- K (6 h): 4.6 meq/L
- LDH (6 h): 99.2 IU/L
- Na (6 h): 138.4 meq/L
- PL (6 h): 140.2 mg/dL
- RALB (6 h): 3.5 g/dL
- TBIL (6 h): 0.4 mg/dL
- TC (6 h): 83.6 mg/dL
- TG (6 h): 60.4 mg/dL
- TP (6 h): 5.2 g/dL
- gamma-GTP (6 h): 1 IU/L
- TERMINAL_BW (9 h): 191.7 g
- APTT (9 h): 16.7 s
- Bas (9 h): 0%
- Eos (9 h): 1.2%
- Fbg (9 h): 206 mg/dL
- Hb (9 h): 12.9 g/dL
- Ht (9 h): 39.2%
- Lym (9 h): 75%
- MCH (9 h): 21.6 pg
- MCHC (9 h): 32.8%
- MCV (9 h): 65.6 fL
- Mono (9 h): 7.8%
- Neu (9 h): 16.2%
- PT (9 h): 11.9 s
- Plat (9 h): 115.9 x10_4/uL
- RBC (9 h): 597 x10_4/ul
- Ret (9 h): 9.5%
- WBC (9 h): 88.2 x10_2/uL
- KIDNEY_L (9 h): 0.9 g
- KIDNEY_R (9 h): 1 g
- KIDNEY_TOTAL (9 h): 1.9 g
- LIVER (9 h): 8.1 g
- A/G (9 h): 2.6
- ALP (9 h): 786.2 IU/L
- ALT (9 h): 33 IU/L
- AST (9 h): 67.2 IU/L
- BUN (9 h): 11 mg/dL
- CRE (9 h): 0.5 mg/dL
- Ca (9 h): 10.3 mg/dL
- Cl (9 h): 104.6 meq/L
- DBIL (9 h): 0.066 mg/dL
- GLC (9 h): 190.6 mg/dL
- IP (9 h): 10.6 mg/dL
- K (9 h): 4.8 meq/L
- LDH (9 h): 107 IU/L
- Na (9 h): 138 meq/L
- PL (9 h): 138 mg/dL
- RALB (9 h): 3.7 g/dL
- TBIL (9 h): 0.3 mg/dL
- TC (9 h): 79.8 mg/dL
- TG (9 h): 46 mg/dL
- TP (9 h): 5.2 g/dL
- gamma-GTP (9 h): 0.2 IU/L
- TERMINAL_BW (24 h): 205.6 g
- APTT (24 h): 16.3 s
- Bas (24 h): 0%
- Eos (24 h): 1%
- Fbg (24 h): 205.6 mg/dL
- Hb (24 h): 12.7 g/dL
- Ht (24 h): 38.5%
- Lym (24 h): 81.2%
- MCH (24 h): 21.8 pg
- MCHC (24 h): 33.1%
- MCV (24 h): 65.9 fL
- Mono (24 h): 5.8%
- Neu (24 h): 12.4%
- PT (24 h): 11.6 s
- Plat (24 h): 106.5 x10_4/uL
- RBC (24 h): 585.2 x10_4/ul
- Ret (24 h): 11.1%
- WBC (24 h): 105.9 x10_2/uL
- KIDNEY_L (24 h): 1 g
- KIDNEY_R (24 h): 1 g
- KIDNEY_TOTAL (24 h): 2 g
- LIVER (24 h): 10.2 g
- A/G (24 h): 2.2
- ALP (24 h): 869.2 IU/L
- ALT (24 h): 39.4 IU/L
- AST (24 h): 67.2 IU/L
- BUN (24 h): 17.4 mg/dL
- CRE (24 h): 0.6 mg/dL
- Ca (24 h): 10.9 mg/dL
- Cl (24 h): 102.2 meq/L
- DBIL (24 h): 0.03 mg/dL
- GLC (24 h): 204.2 mg/dL
- IP (24 h): 8.4 mg/dL
- K (24 h): 4.5 meq/L
- LDH (24 h): 105.2 IU/L
- Na (24 h): 139.8 meq/L
- PL (24 h): 142.6 mg/dL
- RALB (24 h): 3.7 g/dL
- TBIL (24 h): 0.4 mg/dL
- TC (24 h): 79.4 mg/dL
- TG (24 h): 81.6 mg/dL
- TP (24 h): 5.4 g/dL
- gamma-GTP (24 h): 0.8 IU/L
